The values that follow come from ChEMBL document CHEMBL1201862, “PubChem BioAssay data set” (2004).

Assay [1] concerns the target UDP-galactopyranose mutase (Mycobacterium tuberculosis, UniProt P9WIQ1). Kind of assay: Inhibitors of Mycobacterium tuberculosis UDP-galactopyranose mutase (UGM) enzyme Measured in Biochemical System Using Plate Reader - 2105-02_Inhibitor_Dose_CherryPick_Activity. [Related pubchem assays (depositor defined):AID504439].
The target in assay [2] is T1, Histone-lysine N-methyltransferase NSD2 (Homo sapiens, UniProt O96028).
T1 sequence (O96028 whole entry): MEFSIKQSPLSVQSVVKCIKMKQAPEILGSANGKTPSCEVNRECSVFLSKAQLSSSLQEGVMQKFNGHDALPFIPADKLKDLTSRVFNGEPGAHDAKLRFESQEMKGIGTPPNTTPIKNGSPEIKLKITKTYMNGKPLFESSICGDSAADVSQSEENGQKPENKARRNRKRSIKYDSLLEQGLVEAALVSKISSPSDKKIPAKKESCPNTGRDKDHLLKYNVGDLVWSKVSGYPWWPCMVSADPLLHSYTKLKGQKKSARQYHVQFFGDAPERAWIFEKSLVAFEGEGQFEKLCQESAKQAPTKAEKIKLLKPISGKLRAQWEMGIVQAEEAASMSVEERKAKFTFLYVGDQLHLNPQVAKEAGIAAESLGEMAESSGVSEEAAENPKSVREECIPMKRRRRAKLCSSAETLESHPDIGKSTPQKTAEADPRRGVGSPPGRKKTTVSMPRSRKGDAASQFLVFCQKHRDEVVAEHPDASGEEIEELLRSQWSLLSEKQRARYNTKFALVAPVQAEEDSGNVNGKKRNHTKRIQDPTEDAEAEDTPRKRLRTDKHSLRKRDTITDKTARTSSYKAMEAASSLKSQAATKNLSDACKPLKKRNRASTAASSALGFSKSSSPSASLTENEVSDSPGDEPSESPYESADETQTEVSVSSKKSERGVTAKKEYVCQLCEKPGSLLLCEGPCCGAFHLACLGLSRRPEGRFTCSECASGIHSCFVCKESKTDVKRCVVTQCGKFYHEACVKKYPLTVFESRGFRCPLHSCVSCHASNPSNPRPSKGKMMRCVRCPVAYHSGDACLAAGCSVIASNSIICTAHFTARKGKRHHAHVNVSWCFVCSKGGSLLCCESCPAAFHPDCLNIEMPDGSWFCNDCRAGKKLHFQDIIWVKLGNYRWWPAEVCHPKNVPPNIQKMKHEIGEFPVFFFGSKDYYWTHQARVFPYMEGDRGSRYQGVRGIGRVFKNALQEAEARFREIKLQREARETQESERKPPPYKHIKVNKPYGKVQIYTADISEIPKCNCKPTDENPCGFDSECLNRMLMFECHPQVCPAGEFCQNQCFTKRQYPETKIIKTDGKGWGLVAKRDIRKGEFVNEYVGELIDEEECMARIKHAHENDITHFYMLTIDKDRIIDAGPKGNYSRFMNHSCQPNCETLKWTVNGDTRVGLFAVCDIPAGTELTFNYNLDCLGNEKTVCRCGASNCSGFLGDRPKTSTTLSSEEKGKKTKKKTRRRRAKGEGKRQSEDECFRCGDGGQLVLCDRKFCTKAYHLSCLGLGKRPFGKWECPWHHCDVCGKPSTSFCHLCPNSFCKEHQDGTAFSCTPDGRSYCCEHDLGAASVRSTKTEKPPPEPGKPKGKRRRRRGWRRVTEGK
It counts as biochemical.

In assay [3] the target is Bifunctional protein GlmU (Mycobacterium tuberculosis, UniProt P9WMN3). Kind of assay: Inhibitors of Mycobacterial Glucosamine-1-phosphate acetyl transferase (GlmU). Secondary screen. Set-up: species or system Mycobacterium tuberculosis H37Rv.
Chain of Bifunctional protein GlmU (P9WMN3 whole entry): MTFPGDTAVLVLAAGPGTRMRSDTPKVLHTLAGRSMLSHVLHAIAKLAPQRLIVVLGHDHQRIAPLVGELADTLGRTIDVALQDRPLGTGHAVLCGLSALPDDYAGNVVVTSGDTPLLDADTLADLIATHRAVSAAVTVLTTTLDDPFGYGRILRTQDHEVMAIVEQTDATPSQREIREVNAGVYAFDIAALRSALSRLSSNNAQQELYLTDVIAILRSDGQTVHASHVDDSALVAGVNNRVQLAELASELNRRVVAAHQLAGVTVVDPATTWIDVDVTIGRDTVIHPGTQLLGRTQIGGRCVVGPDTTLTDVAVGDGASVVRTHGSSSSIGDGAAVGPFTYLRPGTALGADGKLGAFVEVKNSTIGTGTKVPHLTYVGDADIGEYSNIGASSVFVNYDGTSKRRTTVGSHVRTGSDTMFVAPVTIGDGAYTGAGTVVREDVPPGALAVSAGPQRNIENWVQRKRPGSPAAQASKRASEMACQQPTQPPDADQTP
Assay [4] deals with Neurotensin receptor type 1 (Homo sapiens, UniProt P30989). In kind it is functional.
Chain of Neurotensin receptor type 1 (P30989 whole entry): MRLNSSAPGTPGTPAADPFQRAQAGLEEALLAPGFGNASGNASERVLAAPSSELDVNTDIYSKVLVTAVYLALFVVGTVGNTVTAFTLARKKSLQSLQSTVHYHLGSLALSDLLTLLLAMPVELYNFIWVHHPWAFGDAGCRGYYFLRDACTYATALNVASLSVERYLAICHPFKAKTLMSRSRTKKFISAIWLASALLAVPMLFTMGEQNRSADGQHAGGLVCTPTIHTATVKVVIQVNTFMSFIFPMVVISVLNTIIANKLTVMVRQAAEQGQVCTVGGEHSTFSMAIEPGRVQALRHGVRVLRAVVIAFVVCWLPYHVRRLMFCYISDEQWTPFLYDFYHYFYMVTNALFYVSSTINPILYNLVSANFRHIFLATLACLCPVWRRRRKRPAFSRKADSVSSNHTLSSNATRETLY
Assay [5] has as its target Lysine-specific demethylase 4C (Homo sapiens, UniProt Q9H3R0). The assay can be described thus: GASC-1 (JMJD2C) histone demethylase inhibitors, dose response, biochemical, DELFIA europium, cherry-picked samples (AID 488835). It counts as functional.
A further assay concerns the target Genome polyprotein (dengue virus type 2, UniProt P29990). The assay can be described thus: Dengue-2 NS5 methyltransferase inhibitors, primary screen, biochemical, confirmation dose response (AID 588689). It counts as functional.
Assay [6] in a line: insulin promoter down-regulators in MIN6 cells, imaging, high-content screening, mouse beta cells (AID 1628). It counts as functional.
Assay [7] relates to Streptococcus sp. 'group A'. The assay can be described thus: growth inhibition of control SK(-) GAS strain, dose response, counter-screen for streptokinase expression inhibitor project, luminescence, kanamycin, BacTiterGlo, confirmation (AID 1900). It counts as functional, organism-based.
The nature of assay [8]: cytotoxicity in MIN6 insulinoma cells, dose response, cytotoxicity control, cell-based, mouse insulinoma (AID 2122).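 Also: confirmatory high-throughput counterscreen run to flag cytotoxic compounds; mouse MIN-6 beta cells carrying an insulin promoter eGFP reporter.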 It counts as functional.
Another assay relates to Streptococcus. The assay can be described thus: Group A Streptococcus viability loss, dose response, counter-screen for streptokinase expression inhibitor project, luminescence, BacTiterGlo (AID 1915).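 Also: potency for reduction of bacterial viability or growth.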 In kind it is functional, organism-based. For orientation: Counterscreens check selectivity or assay interference.
A short description of assay [9]: Luminescence Cell-Based Dose Retest to Confirm Inhibitors of Cancer Stem Cells. [Related pubchem assays (depositor defined):AID2717, AID2721]. As to conditions: Homo sapiens. In kind it is functional.
Assay [10] has as its system HEK293. The assay can be described thus: inhibitors of LMP1-driven NF-kB reporter, dose response, cell-based, HEK293, luciferase, cherry-pick (AID 588343). It counts as functional. As to conditions: Homo sapiens.
Assay [11] has as its system Vero. Kind of assay: cells. It counts as functional, cell-based. As to conditions: Chlorocebus sabaeus.
The next assay has as its system INS1. Kind of assay: beta cell apoptosis inhibitors, cytokine rescue, dose response, luminescence, retest (AID 449756).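 Also: cell death triggered by IL-1 beta plus TNF-alpha plus IFN-gamma mixture; protective hits raise ATP signal compared with cytokine alone wells.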 In kind it is functional, cell-based. As to conditions: Rattus norvegicus, INS1.
In assay [12] the test system is Vero. Kind of assay: cells. It counts as functional. As to conditions: Chlorocebus sabaeus.
Assay [13] deals with HEK293. The assay can be described thus: cells. The conditions noted are these: Homo sapiens.
Assay [14] relates to HEK293. Kind of assay: cells. As to conditions: Homo sapiens. The source holds these as a separate data set.
The nature of assay [15]: HEp-2 cell cytotoxicity, dose response, cytotoxicity control for RSV inhibitor project, HTS (AID 2410). It counts as functional. As to conditions: human respiratory syncytial virus.
Assay [16] has as its target Induced myeloid leukemia cell differentiation protein Mcl-1 (Homo sapiens, UniProt Q07820). It counts as functional.
The target in assay [17] is T2, Endoribonuclease toxin MazF (Escherichia coli K-12, UniProt P0AE70).
T2 sequence (P0AE70 whole entry): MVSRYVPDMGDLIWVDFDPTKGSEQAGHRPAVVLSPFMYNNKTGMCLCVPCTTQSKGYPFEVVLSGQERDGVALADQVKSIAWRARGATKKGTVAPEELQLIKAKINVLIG
The assay can be described thus: MazF toxin RNase activators, dose response, biochemical, fluorescence, single-stranded RNA substrate, uHTS hits (AID 588481). It counts as functional.

In assay [18] the target is T2, Endoribonuclease toxin MazF. Kind of assay: fluorescent RNA oligo signal without MazF, dose response, counter-screen for MazEF activator project, biochemical, fluorescence, single-stranded RNase substrate (AID 588502). It counts as functional.
Assay [19] addresses T3, Rac GTPase-activating protein 1 (Homo sapiens, UniProt Q9H0H5).
T3 sequence (Q9H0H5 whole entry): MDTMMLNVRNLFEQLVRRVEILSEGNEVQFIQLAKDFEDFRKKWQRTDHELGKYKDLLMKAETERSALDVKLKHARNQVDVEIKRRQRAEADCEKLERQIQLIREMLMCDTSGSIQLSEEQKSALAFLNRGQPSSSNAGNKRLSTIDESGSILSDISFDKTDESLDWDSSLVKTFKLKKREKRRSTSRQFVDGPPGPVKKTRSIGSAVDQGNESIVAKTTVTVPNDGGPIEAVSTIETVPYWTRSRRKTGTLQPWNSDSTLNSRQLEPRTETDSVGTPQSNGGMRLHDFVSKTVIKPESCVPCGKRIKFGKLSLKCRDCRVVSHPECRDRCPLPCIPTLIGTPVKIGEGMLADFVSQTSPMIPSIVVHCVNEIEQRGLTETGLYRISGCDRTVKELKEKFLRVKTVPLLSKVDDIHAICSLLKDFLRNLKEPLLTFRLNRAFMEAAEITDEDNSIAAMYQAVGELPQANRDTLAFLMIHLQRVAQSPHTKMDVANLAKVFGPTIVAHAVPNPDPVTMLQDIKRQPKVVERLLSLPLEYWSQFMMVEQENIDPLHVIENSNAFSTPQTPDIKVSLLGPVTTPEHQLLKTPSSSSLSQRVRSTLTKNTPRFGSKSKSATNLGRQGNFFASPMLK
Kind of assay: MgcRacGAP GTPase-activating activity inhibitors, confirmation, biochemical, ADP Hunter fluorescence, primary and confirmatory (AID 624330). In kind it is functional.

Assay [20] can be described thus: cytotoxicity in HMLE control line with eGFP shRNA, dose response, counter-screen for HMLE_sh_ECad selective toxicity project, cell-based, HMLE_sh_eGFP, luminescence (AID 463074).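 Also: HMLE human mammary epithelial cells expressing control shRNA against eGFP.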 In kind it is functional, Homo sapiens.
The test system of a further assay is Jurkat. Kind of assay: antigen receptor-induced NF-kB inhibitors, dose response, Jurkat, luciferase reporter, luminescence, B- and T-cell (AID 489004).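 Also: NF-kB luciferase reporter Jurkat cells stimulated with PMA plus ionomycin.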 It counts as functional, cell-based. As to conditions: Homo sapiens. A general note: A reporter such as luciferase makes a cellular process visible.
Assay [21] can be described thus: cytotoxicity in HEK-293T NF-kB-Luc cells, dose response, cytotoxicity control for B/T-cell NF-kB inhibitor project, cell-based, uHTS hits (AID 489019).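 Also: IC50 reflects cytotoxicity as loss of cell viability.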 It counts as functional.

The AC50 is the midpoint of the concentration-response curve, whichever way the signal moves. What is called IC50 is the midpoint of a concentration-inhibition curve. For orientation: EC50 means the concentration needed to bring the measured effect to its halfway point. For orientation: CC50 means the concentration giving 50% cytotoxicity.

Active and inactive are the calls of the source.

Chain of UDP-galactopyranose mutase (P9WIQ1 whole entry): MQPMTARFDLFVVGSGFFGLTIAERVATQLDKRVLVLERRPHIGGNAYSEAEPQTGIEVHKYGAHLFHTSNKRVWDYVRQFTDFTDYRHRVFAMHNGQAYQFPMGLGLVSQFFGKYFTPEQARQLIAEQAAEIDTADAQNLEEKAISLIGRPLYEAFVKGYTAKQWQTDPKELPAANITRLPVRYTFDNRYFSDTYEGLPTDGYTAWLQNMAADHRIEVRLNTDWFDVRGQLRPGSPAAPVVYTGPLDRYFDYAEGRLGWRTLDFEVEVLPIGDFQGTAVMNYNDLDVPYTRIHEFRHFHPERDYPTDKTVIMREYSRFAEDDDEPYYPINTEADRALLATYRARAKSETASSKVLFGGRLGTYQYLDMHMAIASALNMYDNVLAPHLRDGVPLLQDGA
Chain of Genome polyprotein (P29990 2492-3391 limits assumed): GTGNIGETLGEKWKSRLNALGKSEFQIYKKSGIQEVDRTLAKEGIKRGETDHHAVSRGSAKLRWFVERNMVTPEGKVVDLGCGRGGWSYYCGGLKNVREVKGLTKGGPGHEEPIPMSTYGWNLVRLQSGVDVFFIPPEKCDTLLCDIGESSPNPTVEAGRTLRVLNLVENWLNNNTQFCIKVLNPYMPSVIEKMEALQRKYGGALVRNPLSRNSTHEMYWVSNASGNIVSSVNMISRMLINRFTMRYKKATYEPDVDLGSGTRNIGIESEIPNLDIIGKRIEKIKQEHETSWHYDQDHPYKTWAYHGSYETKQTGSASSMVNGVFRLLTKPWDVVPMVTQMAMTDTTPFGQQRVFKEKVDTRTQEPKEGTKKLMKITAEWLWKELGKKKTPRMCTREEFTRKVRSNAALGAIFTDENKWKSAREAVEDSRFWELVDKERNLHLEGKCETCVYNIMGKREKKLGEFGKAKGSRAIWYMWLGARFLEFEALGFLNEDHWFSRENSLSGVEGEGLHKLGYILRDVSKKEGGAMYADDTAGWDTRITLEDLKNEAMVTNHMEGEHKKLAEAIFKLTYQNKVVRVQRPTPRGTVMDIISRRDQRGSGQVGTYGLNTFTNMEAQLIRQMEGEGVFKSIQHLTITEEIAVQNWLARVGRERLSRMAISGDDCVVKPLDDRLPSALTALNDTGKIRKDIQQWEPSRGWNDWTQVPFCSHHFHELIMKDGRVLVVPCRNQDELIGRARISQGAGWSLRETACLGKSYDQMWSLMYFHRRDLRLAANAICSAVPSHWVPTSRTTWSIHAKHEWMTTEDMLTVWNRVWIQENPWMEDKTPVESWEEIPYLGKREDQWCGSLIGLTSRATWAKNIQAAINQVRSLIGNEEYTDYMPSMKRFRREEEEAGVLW
Chain of Induced myeloid leukemia cell differentiation protein Mcl-1 (Q07820 whole entry): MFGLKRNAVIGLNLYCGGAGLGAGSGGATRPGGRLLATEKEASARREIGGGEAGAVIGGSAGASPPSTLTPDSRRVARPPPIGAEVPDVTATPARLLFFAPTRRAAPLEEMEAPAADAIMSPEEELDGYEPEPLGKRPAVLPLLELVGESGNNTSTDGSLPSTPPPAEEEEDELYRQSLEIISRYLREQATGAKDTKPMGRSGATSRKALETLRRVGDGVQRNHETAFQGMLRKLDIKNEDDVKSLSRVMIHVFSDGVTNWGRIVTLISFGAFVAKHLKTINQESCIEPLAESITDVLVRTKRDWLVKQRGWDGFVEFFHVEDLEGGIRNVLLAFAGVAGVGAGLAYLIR
Chain of Lysine-specific demethylase 4C (Q9H3R0 whole entry): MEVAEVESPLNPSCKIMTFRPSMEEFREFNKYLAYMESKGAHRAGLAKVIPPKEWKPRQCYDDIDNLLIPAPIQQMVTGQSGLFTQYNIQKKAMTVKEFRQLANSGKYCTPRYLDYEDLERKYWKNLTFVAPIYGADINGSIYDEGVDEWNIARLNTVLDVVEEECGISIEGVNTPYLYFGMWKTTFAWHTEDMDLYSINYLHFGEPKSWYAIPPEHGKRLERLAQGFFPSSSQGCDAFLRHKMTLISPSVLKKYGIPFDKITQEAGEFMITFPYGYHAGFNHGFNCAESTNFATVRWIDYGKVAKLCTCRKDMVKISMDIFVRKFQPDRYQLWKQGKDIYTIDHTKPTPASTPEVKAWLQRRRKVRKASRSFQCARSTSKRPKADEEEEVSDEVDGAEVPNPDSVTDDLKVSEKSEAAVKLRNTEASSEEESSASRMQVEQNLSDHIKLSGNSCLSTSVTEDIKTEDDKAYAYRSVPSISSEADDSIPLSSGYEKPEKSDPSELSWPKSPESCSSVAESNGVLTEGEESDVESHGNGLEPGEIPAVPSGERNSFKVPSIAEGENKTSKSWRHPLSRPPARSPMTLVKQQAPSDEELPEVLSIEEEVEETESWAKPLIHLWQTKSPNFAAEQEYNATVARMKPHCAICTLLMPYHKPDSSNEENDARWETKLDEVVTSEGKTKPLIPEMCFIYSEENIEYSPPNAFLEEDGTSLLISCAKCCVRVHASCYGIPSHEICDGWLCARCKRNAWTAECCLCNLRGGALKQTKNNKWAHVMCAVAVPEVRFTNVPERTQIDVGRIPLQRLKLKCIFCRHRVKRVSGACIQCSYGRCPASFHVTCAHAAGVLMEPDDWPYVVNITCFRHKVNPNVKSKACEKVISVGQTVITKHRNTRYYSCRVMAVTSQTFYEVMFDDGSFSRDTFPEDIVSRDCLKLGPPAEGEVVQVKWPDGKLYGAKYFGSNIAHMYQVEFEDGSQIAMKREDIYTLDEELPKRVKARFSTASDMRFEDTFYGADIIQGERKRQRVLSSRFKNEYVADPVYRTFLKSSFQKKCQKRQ

For `COc1ccc(-n2c(C)ccc2-c2ccccc2)cn1`, the AC50 was 58 µM (active) in assay [1] and > 20 µM (inactive) in assay [2].

For `O=C1NC(=O)C(=Cc2ccc(Sc3ccccc3)o2)C(=O)N1`, the IC50 is 369 µM (active) in assay [3] and > 100 µM (active) on Genome polyprotein. The concentration giving a half-maximal response (EC50) in [4] was 11.2 µM (active). In assay [5], the AC50 was 10.6 µM (active).

As to `COc1ccc(O)c(/C=N/Nc2nc(Nc3ccccc3)nc(-n3nc(C)cc3C)n2)c1`, the values for the IC50 (in assay [6]; in assay [8]; in the assay on Vero [11]) were 1.67 µM (active), 0.878 µM (active) and > 12.5 µM (active), respectively. Further, the EC50 is 1.07 µM (active) in assay [7], 2.16 µM (active) in the assay on Streptococcus, > 59.6 µM (inactive) in the assay on HEK293 [13] and > 59.6 µM (inactive) with HEK293 [14]. For the same compound, the values for the AC50 (in [9]; in the assay with HEK293 [10]; in the assay with INS1) were 4.75 µM (active), 10.7 µM (active) and 1.01 µM (active), respectively. For the same compound, in the assay on Vero [12], the CC50 is 11.8 µM (active).

In the case of `O=c1oc2ccccc2cc1-c1csc(Nc2ccc(O)cc2)n1`, the CC50 in assay [15] is > 50 µM (active). The IC50 was 2.81 µM (active) in assay [6], 4.07 µM (active) in assay [8], 2.76 µM (active) in assay [16] and 70.1 µM (active) in assay [19]. The EC50 in [17] and in assay [18] was > 99 µM (inactive) in each case.

Take `CCCOc1ccc(C(=O)N2CCN(c3ccc(N)cc3Cl)CC2)cc1`: the AC50 in assay [9] is 10.1 µM (active); in assay [20] it was 47.8 µM (active).

As to `Oc1[nH]c2ccc(Br)cc2c1N=Nc1ccc(F)cc1`, the figures for the EC50 in [17] and in assay [18] were > 99 µM (inactive) and 45.8 µM (inactive), respectively. For the same compound, the AC50 in assay [1] was 91.6 µM (active).

Take `COc1ccc(N=C(S)N(C)N=C(S)Nc2ccc(OC)cc2)cc1`: the figures for the AC50 in assay [9] and in [20] were 16.3 µM (active) and 22 µM (active), respectively.

Take `CC(C)(O)c1[nH]c2ccc(C#N)cc2c1C(C)(C)O`: the IC50 (in the assay on Jurkat; in assay [21]) was > 80 µM (inactive) each time.
